# Assay results: ChEMBL document CHEMBL1145763, “Design, synthesis and photochemical properties of caged bile acids” (Bioorg Med Chem Lett, 2003)
# Experiment: Solubility in 100 mM Tris pH(8.5)/ 30% PEG 6000/200 mM NaOAc
# Assay type: physicochemical
row,SMILES,solubility [µM]
1,COc1cc(CO[C@@H]2CC[C@@]3(C)C(C2)C[C@@H](O)[C@H]2[C@@H]4CC[C@H]([C@H](C)CCC(=O)O)[C@@]4(C)[C@@H](O)C[C@@H]23)c([N+](=O)[O-])cc1OC (some centres undefined),1000
2,C[C@H](CCC(=O)NCC(=O)O)[C@H]1CC[C@H]2[C@@H]3[C@H](O)CC4C[C@H](OCc5ccccc5[N+](=O)[O-])CC[C@]4(C)[C@H]3CC[C@]12C (some centres undefined),4000
3,C[C@H](CCC(=O)O)[C@H]1CC[C@H]2[C@@H]3[C@H](O)CC4C[C@H](OCc5ccccc5[N+](=O)[O-])CC[C@]4(C)[C@H]3CC[C@]12C (some centres undefined),5000
4,C[C@H](CCC(=O)O)[C@H]1CC[C@H]2[C@@H]3[C@H](O)CC4C[C@H](OCc5ccccc5[N+](=O)[O-])CC[C@]4(C)[C@H]3C[C@H](O)[C@]12C (some centres undefined),2000
